# Test results published in patent publication US5683981A, “Cyclic bridged analogs of α-MSH and methods thereof” (Competitive Technologies, Inc., priority 1995, dated 1997).
# Non-standard residues stand in square brackets, D forms with d. Residues, ends and D or L forms follow the SMILES beside them.
# Legend:
# frog skin = experiment: Frog skin assay: melanosome dispersion (skin darkening) in vitro; type: cell-based, Rana pipiens; conditions: for Creeping potency (percentage skin darkening at a particular dose increases with time): frog skin bioassay; for Potencies Relative to α-MSH, Frog Skin Assay: tested in the range 10^-12 to 10^-9 M, compared to half-maximal effective dose of α-MSH (10^-10 M)
# Description: (§1) The peptides described above were examined to determine the relative potencies of the peptides in respect to the stimulation of a melanosome dispersion in vitro using the frog (Rana pipiens) and the lizard (Anolis carolinensis) [see Science 213:1025 (1981)]. These assays are recognized by the scientific communitty to be a fairly accurate representation of results that would be expected when the test substances are administered to vertebrates in vivo; if activity is found when the test substances are tested in the frog skin assay and the lizard skin assay, similar activity would be expected if the test substances are administered to vertebrates, i.e, darkening in the two assays would indicate that darkening would also occur in vertebrates. These assays measure the amount of light reflected from the surface of the skins in vitro. In response to melanotropic peptides, melanosomes within integumental melanocytes migrate from a perinuclear position into the dendritic processes of the pigment cells. This centrifugal organellar dispersion results in a change of color (darkening) of the skins which is measured by a Photovolt reflectometer and is expressed as the percent response compared to the initial (time zero) reflectance value. | ^a = all peptide derivatives were tested in the range of 10^-12 t | 10^-9 M concentration; compared to the halfmaximal effective dose of | aMSH in the frog skin assay (10^-10 M), or in the lizard skin assay | (10^-9 M).
# lizard skin = experiment: Lizard skin assay: melanosome dispersion (skin darkening) in vitro; type: cell-based, Anolis carolinensis; conditions: tested in the range 10^-12 to 10^-9 M; compared to half-maximal effective dose of α-MSH (10^-9 M)
# Description: as §1
# [1] = test system: crude cell membranes of B-16 mouse melanoma cells; experiment: Affinity of peptide to homogenized crude cell membranes (HPLC of supernatant and pellet extract); type: binding
# Description: 0.3 μmole of peptide SHU-9002 was dissolved in 1 ml solution of homogenized crude cell membranes, obtained from about 0.6 million B-16 mouse melanoma cells, in phosphate buffer. After 5 hrs, the suspension was centrifuged at 10,000×g for 10 min. The pellet was saved and the supernatant subjected to HPLC on a C-18 column.
# The pellet saved above was treated with DMSO-0.1% aq. TFA mixture (1:1), centrifuged as before and the supernatant subjected to HPLC as earlier.
structure (smiles),measurement,setting,value
CCCC[C@H](NC(=O)[C@H](CO)NC(=O)[C@H](Cc1ccc(O)cc1)NC(=O)[C@H](CO)NC(C)=O)C(=O)N[C@H]1CCC(=O)N[C@@H](CCCCN)C(=O)N[C@@H](CCCNC(=N)N)C(=O)NCCCC[C@@H](C(=O)N2CCC[C@H]2C(=O)N[C@H](C(N)=O)C(C)C)NC(=O)CNC(=O)[C@H](Cc2c[nH]c3ccccc23)NC(=O)[C@H](CCCNC(=N)N)NC(=O)[C@@H](Cc2ccccc2)NC(=O)[C@H](Cc2c[nH]cn2)NC1=O [SHU 9010],Creeping potency (percentage skin darkening at a particular dose increases with time),frog skin,exhibited creeping potency
same,"Potencies Relative to α-MSH, Frog Skin Assay",frog skin,145
CCCC[C@H](NC(C)=O)C(=O)N[C@H]1CC(=O)N[C@@H](CCCNC(=N)N)C(=O)N[C@@H](CCCNC(=N)N)C(=O)NCCCC[C@@H](C(N)=O)NC(=O)[C@H](Cc2c[nH]c3ccccc23)NC(=O)[C@H](CCCNC(=N)N)NC(=O)[C@@H](Cc2ccccc2)NC(=O)[C@H](Cc2c[nH]cn2)NC1=O [SHU 9020],"Potencies Relative to α-MSH, Lizard Skin Assay",lizard skin,6.7
same,"Potencies Relative to α-MSH, Frog Skin Assay",frog skin,0.14
CCCC[C@H](NC(=O)[C@H](CO)NC(=O)[C@H](Cc1ccc(O)cc1)NC(=O)[C@H](CO)NC(C)=O)C(=O)N[C@H]1CCC(=O)N[C@H](CCCCN)C(=O)N[C@H](CCCCN)C(=O)NCCCC[C@@H](C(=O)N2CCC[C@H]2C(=O)N[C@H](C(N)=O)C(C)C)NC(=O)CNC(=O)[C@H](Cc2c[nH]c3ccccc23)NC(=O)[C@H](CCCNC(=N)N)NC(=O)[C@@H](Cc2ccccc2)NC(=O)[C@H](Cc2c[nH]cn2)NC1=O [SHU-9210],"Potencies Relative to α-MSH, Frog Skin Assay",frog skin,3.5
CCCC[C@H](NC(C)=O)C(=O)N[C@H]1CC(=O)N[C@@H](CCCNC(=N)N)C(=O)N[C@@H](CCCCN)C(=O)NCCCC[C@@H](C(N)=O)NC(=O)[C@H](Cc2c[nH]c3ccccc23)NC(=O)[C@H](CCCNC(=N)N)NC(=O)[C@@H](Cc2ccccc2)NC(=O)[C@H](Cc2c[nH]cn2)NC1=O [SHU 9021],"Potencies Relative to α-MSH, Lizard Skin Assay",lizard skin,13.4
same,"Potencies Relative to α-MSH, Frog Skin Assay",frog skin,0.25
"CC(=O)N[C@@H](CO)C(=O)N[C@@H](Cc1ccc(O)cc1)C(=O)N[C@@H](CCCCN)C(=O)N[C@@H](CCCCN)C(=O)N[C@@H](CCC(=O)O)C(=O)N[C@@H](Cc1c[nH]cn1)C(=O)N[C@H](Cc1ccccc1)C(=O)N[C@@H](CCCNC(=N)N)C(=O)N[C@@H](Cc1c[nH]c2ccccc12)C(=O)NCC(=O)N[C@@H](CCCCN)C(=O)N1CCC[C@H]1C(=O)N[C@H](C(N)=O)C(C)C [SHU 9027, Ac[Lys^3,4, DPhe^7]-α-MSH1-13NH2] (Ac-SYKKEH[dF]RWGKPV-NH2)","Potencies Relative to α-MSH, Frog Skin Assay",frog skin,0.4
CCCC[C@@H]1NC(=O)CC[C@H](NC(=O)[C@H](CCCC)NC(=O)[C@H](CO)NC(=O)[C@H](Cc2ccc(O)cc2)NC(=O)[C@H](CO)NC(C)=O)C(=O)N[C@@H](Cc2c[nH]cn2)C(=O)N[C@H](Cc2ccccc2)C(=O)N[C@@H](CCCNC(=N)N)C(=O)N[C@@H](Cc2c[nH]c3ccccc23)C(=O)NCC(=O)N[C@H](C(=O)N2CCC[C@H]2C(=O)N[C@H](C(N)=O)C(C)C)CCCCNC(=O)[C@H](CCCC)NC1=O [SHU 9026],"Potencies Relative to α-MSH, Frog Skin Assay",frog skin,7
CCCC[C@H](NC(=O)[C@H](CO)NC(=O)[C@H](Cc1ccc(O)cc1)NC(=O)[C@H](CO)NC(C)=O)C(=O)N[C@H]1CCC(=O)N[C@@H](CCCNC(=N)N)C(=O)N[C@@H](CCCNC(=N)N)C(=O)NCCCC[C@@H](C(=O)N2CCC[C@H]2C(=O)N[C@H](C(N)=O)C(C)C)NC(=O)CNC(=O)[C@H](Cc2c[nH]c3ccccc23)NC(=O)[C@H](CCCNC(=N)N)NC(=O)[C@@H](Cc2ccccc2)NC(=O)[C@H](Cc2c[nH]cn2)NC1=O [SHU 9002],"Potencies Relative to α-MSH, Lizard Skin Assay",lizard skin,2
same,Creeping potency (percentage skin darkening at a particular dose increases with time),frog skin,exhibited creeping potency
same,"Potencies Relative to α-MSH, Frog Skin Assay",frog skin,25
same,"Presence of peptide in supernatant after incubation with cell membranes (HPLC, C-18)","[1]; 0.3 μmole peptide in 1 ml membrane homogenate from about 0.6 million cells, phosphate buffer, 5 hrs, centrifuged 10,000×g 10 min",no evidence for the presence of the peptide SHU-9002 in the supernatant
same,Affinity to the cell membranes,[1]; conclusion from supernatant and pellet HPLC,marked affinity
same,Peptide recovered from membrane pellet (HPLC after DMSO-0.1% aq. TFA 1:1 treatment),[1]; pellet of the 5 hrs incubation,elution pattern corresponding to the SHU-9002 was obtained
CCCC[C@H](NC(=O)[C@H](CO)NC(=O)[C@H](Cc1ccc(O)cc1)NC(=O)[C@H](CO)NC(C)=O)C(=O)N[C@H]1CCC(=O)N[C@@H](CCC(=O)O)C(=O)N[C@@H](CCC(=O)O)C(=O)NCCCC[C@@H](C(=O)N2CCC[C@H]2C(=O)N[C@H](C(N)=O)C(C)C)NC(=O)CNC(=O)[C@H](Cc2c[nH]c3ccccc23)NC(=O)[C@H](CCCNC(=N)N)NC(=O)[C@@H](Cc2ccccc2)NC(=O)[C@H](Cc2c[nH]cn2)NC1=O [SHU-9207],"Potencies Relative to α-MSH, Frog Skin Assay",frog skin,1.3
CCCC[C@H](NC(C)=O)C(=O)N[C@H]1CC(=O)N[C@@H](CCCCN)C(=O)N[C@@H](CCCNC(=N)N)C(=O)NCCCC[C@@H](C(N)=O)NC(=O)[C@H](Cc2c[nH]c3ccccc23)NC(=O)[C@H](CCCNC(=N)N)NC(=O)[C@@H](Cc2ccccc2)NC(=O)[C@H](Cc2c[nH]cn2)NC1=O [SHU 9018],"Potencies Relative to α-MSH, Lizard Skin Assay",lizard skin,10
same,"Potencies Relative to α-MSH, Frog Skin Assay",frog skin,0.05
CCCC[C@H](NC(=O)[C@H](CO)NC(=O)[C@H](Cc1ccc(O)cc1)NC(=O)[C@H](CO)NC(C)=O)C(=O)N[C@H]1CCC(=O)N[C@@H](CCCNC(=N)N)C(=O)N[C@@H](CCCCN)C(=O)NCCCC[C@@H](C(=O)N2CCC[C@H]2C(=O)N[C@H](C(N)=O)C(C)C)NC(=O)CNC(=O)[C@H](Cc2c[nH]c3ccccc23)NC(=O)[C@H](CCCNC(=N)N)NC(=O)[C@@H](Cc2ccccc2)NC(=O)[C@H](Cc2c[nH]cn2)NC1=O [SHU 9014],"Potencies Relative to α-MSH, Lizard Skin Assay",lizard skin,4
same,"Potencies Relative to α-MSH, Frog Skin Assay",frog skin,20
CCCC[C@H](NC(C)=O)C(=O)N[C@H]1CC(=O)N[C@@H](CCCCN)C(=O)N[C@@H](CCCCN)C(=O)NCCCC[C@@H](C(N)=O)NC(=O)[C@H](Cc2c[nH]c3ccccc23)NC(=O)[C@H](CCCNC(=N)N)NC(=O)[C@@H](Cc2ccccc2)NC(=O)[C@H](Cc2c[nH]cn2)NC1=O [SHU 9019],"Potencies Relative to α-MSH, Lizard Skin Assay",lizard skin,12.5
CCCC[C@H](NC(=O)[C@H](CO)NC(=O)[C@H](Cc1ccc(O)cc1)NC(=O)[C@H](CO)NC(C)=O)C(=O)N[C@H]1CCC(=O)N[C@@H](CCCCN)C(=O)N[C@@H](CCCCN)C(=O)NCCCC[C@@H](C(=O)N2CCC[C@H]2C(=O)N[C@H](C(N)=O)C(C)C)NC(=O)CNC(=O)[C@H](Cc2c[nH]c3ccccc23)NC(=O)[C@H](CCCNC(=N)N)NC(=O)[C@@H](Cc2ccccc2)NC(=O)[C@H](Cc2c[nH]cn2)NC1=O [SHU 9009],"Potencies Relative to α-MSH, Lizard Skin Assay",lizard skin,5
same,"Potencies Relative to α-MSH, Frog Skin Assay",frog skin,100
CCCC[C@H](NC(=O)[C@H](CO)NC(=O)[C@H](Cc1ccc(O)cc1)NC(=O)[C@H](CO)NC(C)=O)C(=O)N[C@H]1CCC(=O)NCCCC[C@@H](C(=O)N2CCC[C@H]2C(=O)N[C@H](C(N)=O)C(C)C)NC(=O)CNC(=O)[C@H](Cc2c[nH]c3ccccc23)NC(=O)[C@H](CCCNC(=N)N)NC(=O)[C@@H](Cc2ccccc2)NC(=O)[C@H](Cc2c[nH]cn2)NC1=O [SHU-9205],"Potencies Relative to α-MSH, Frog Skin Assay",frog skin,1.3
CC(=O)N[C@@H](CO)C(=O)N[C@@H](Cc1ccc(O)cc1)C(=O)N[C@@H](CCCCN)C(=O)N[C@@H](CCCCN)C(=O)N[C@H]1CCC(=O)N[C@@H](CCCNC(=N)N)C(=O)N[C@@H](CCCCN)C(=O)NCCCC[C@@H](C(=O)N2CCC[C@H]2C(=O)N[C@H](C(N)=O)C(C)C)NC(=O)CNC(=O)[C@H](Cc2c[nH]c3ccccc23)NC(=O)[C@H](CCCNC(=N)N)NC(=O)[C@@H](Cc2ccccc2)NC(=O)[C@H](Cc2c[nH]cn2)NC1=O [SHU 9013],"Potencies Relative to α-MSH, Lizard Skin Assay",lizard skin,4
same,"Potencies Relative to α-MSH, Frog Skin Assay",frog skin,1
CCCC[C@H](NC(=O)[C@H](CO)NC(=O)[C@H](Cc1ccc(O)cc1)NC(=O)[C@H](CO)NC(C)=O)C(=O)N[C@H]1CCC(=O)N[C@@H](CO)C(=O)N[C@@H](CO)C(=O)NCCCC[C@@H](C(=O)N2CCC[C@H]2C(=O)N[C@H](C(N)=O)C(C)C)NC(=O)CNC(=O)[C@H](Cc2c[nH]c3ccccc23)NC(=O)[C@H](CCCNC(=N)N)NC(=O)[C@@H](Cc2ccccc2)NC(=O)[C@H](Cc2c[nH]cn2)NC1=O [SHU-9209],"Potencies Relative to α-MSH, Frog Skin Assay",frog skin,5
